Legend:
SRC = SRC (Homo sapiens, UniProt P12931); assay: SRC Biochemical Assay Protocol (microfluidic mobility shift assay, FLPeptide4 substrate)
In short: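 Recombinant SRC (0.26 nM) preincubated 30 min at RT with compound (0.0017–100 μM) and 1.5 μM FLPeptide4, then 50 μM ATP added; 90 min reaction in HEPES pH 7.4, 10 mM MgCl2, 1% DMSO, EDTA-quenched. Phosphopeptide quantified by microfluidic mobility shift; IC50 from 4-parameter logistic fit.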

RBE cells = assay: Cell Viability Protocol (CellTiterGlo), RBE cells; type: cell-based; details: RBE or SNU-1079 cells, 72 or 120 hour, cell line and time not given
Description: RBE or SNU-1079 cells were cultured in T-75 or T-175 flasks at 37° C., 5% CO2, 95% relative humidity in RPMI 1640 medium with 10% FBS and 1% Penicillin/Streptomycin (media) and detached with 0.25% trypsin/EDTA at 80-90% confluency. Cells were then seeded in 40 μL media per well in 384-well flat-bottom polystyrene microplates (Corning Cat. No. 3570) at a seeding density of 1200 cells/well and incubated for 24 hours at 37° C. with 5% CO2, 95% relative humidity. On the next day, test compounds were prepared in 10 mM DMSO stock solution and diluted to the indicated concentrations in a 384-well compound source plate. DMSO was employed as a vehicle control. Compounds (40 nL) were transferred to 384-well cell culture plate(s) using the liquid handler Echo550. Plates were incubated at 37° C. with 5% CO2 for 72 hour or 120 hour (as indicated). CellTiterGlo reagent was warmed to 37° C. and added into each well (40 μL per well). Plates were incubated at room temperature for 30 min followed by reading on the EnSpire or EnVision plate reader. Relative viability (% remaining activity) was calculated relative to DMSO control and IC50 values were obtained from dose-response data fitted to a 4-parameter curve.

[1] = tested on: phospho-S6RP (Ser 235/236) in RBE cells; assay: Cellular Proliferation Protocol (cellular phospho-S6RP HTRF), RBE cells; type: cell-based; details: 6 hours treatment, RBE or SNU-1079 cells, cell line not given
Description: Cellular Proliferation Protocol
Cellular phospho-S6RP (Ser 235/236) was measured using a Fluorescence Resonance Energy Transfer (FRET) sandwich assay format (Cisbio HTRF Cat. No. 64RP6PEG). This format uses 2 different, labelled antibodies (Eu^3+-Cryptate donor and d2 acceptor) that positively modulate a specific signal in proportion to phospho-S6RP (Ser 235/236) directly in cells. RBE or SNU-1079 cells were cultivated in T-75 flasks at 37° C., 5% CO2, 95% relative humidity in RPMI 1640 medium with 10% FBS and 1% Penicillin/Streptomycin and detached with trypsin/EDTA at 80-90% confluency. Cells were then seeded in 40 μL volume per well in 384-well flat-bottom polystyrene microplates (Corning Cat. No. 3570) at a seeding density of 2000 cells/well for RBE and 3000 cells/well for SNU-1079 followed by 24 hour incubation at 37° C., 5% CO2, 95% relative humidity. On the next day, compounds were diluted to […] the indicated concentrations and 40 nL of these treatment compounds, along with DMSO vehicle control, were added to the cells (final concentration of compounds is then the indicated concentrations). Treatment was carried out for 6 hours at 37° C., 5% CO2, 95% relative humidity after which the plates were cooled to room temperature before aspirating the medium. Cells were then lysed on a shaker for 45 minutes at room temperature with 20 μL of 1× supplemented lysis buffer per well. After lysis, 5 μL of pre-mixed antibodies was added per well. Plates were covered with black sealing film and incubated overnight at room temperature on a shaker before being read on a PerkinElmer EnVision microplate reader. Percent activation was calculated relative to DMSO control and IC50 values were obtained from dose-response data fitted to a 4-parameter curve.

Sequence of SRC (P12931 whole entry, species assumed): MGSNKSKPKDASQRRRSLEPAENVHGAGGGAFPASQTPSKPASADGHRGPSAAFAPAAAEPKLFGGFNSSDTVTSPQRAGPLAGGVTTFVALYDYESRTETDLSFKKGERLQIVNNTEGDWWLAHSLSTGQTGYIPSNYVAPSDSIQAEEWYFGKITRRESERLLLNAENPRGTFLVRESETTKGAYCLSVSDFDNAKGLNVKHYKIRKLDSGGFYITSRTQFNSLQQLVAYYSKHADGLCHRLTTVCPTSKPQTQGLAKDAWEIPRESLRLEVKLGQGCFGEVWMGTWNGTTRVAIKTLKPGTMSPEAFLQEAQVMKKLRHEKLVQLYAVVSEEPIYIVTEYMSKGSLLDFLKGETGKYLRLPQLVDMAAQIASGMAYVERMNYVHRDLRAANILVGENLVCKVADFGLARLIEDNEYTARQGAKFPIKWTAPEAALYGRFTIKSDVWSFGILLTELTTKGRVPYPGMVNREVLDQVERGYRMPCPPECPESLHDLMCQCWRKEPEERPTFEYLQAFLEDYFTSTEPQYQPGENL

SMILES | IC50 (SRC) [nM] | IC50 (RBE cells) [nM] | IC50 ([1]; 6 h) [nM] | IC50 [1] [nM]
C=CC(=O)N1CCC(C#Cc2c(-c3ccc(Oc4ccccc4)cc3)c3c(N)ncnc3n2C(C)C(N)=O)CC1 (stereo not drawn) [Example I-33] | 10 to 1000 | 10 to 1000 | 10 to 1000 | 
C=CC(=O)N1CC2C(C#Cc3c(-c4cccc5c4OC(F)(F)O5)c4c(N)ncnc4n3C)C2C1 (stereo not drawn) [II-129] | 1000 to 10000 | 10 to 1000 |  | 1000 to 10000
C=CC(=O)N1C[C@@H]2[C@@H](C#Cc3c(-c4ccc(Oc5cccc(C)n5)c(OC)c4)c4c(N)ncnc4n3C)[C@@H]2C1 [II-218, 1-((1R,5S,6s)-6-((4-amino-5-(3-methoxy-4-((6-methylpyridin-2-yl)oxy)phenyl)-7-methyl-7H-pyrrolo[2,3-d]pyrimidin-6-yl)ethynyl)-3-azabicyclo[3.1.0]hexan-3-yl)prop-2-en-1-one] | 10 to 1000 | 10 to 1000 | 10 to 1000 | 
C=CC(=O)N1CC[C@@H](N2CC(C#Cc3c(-c4ccc(OC(C)C)c(OC)c4)c4c(N)ncnc4n3C)C2)[C@@H](O)C1 [II-71] | 10 to 1000 | 10 to 1000 |  | 10 to 1000
C=CC(=O)N1CCC(N2CC(C#Cc3c(-c4ccc(OC(F)(F)F)cc4)c4c(N)ncnc4n3C)C2)CC1 [II-103] | 10 to 1000 | 10 to 1000 |  | 10 to 1000
CC(C)n1c(C#CC2CCN(C3CN(C(=O)/C=C/CN(C)C)C3)CC2)c(-c2ccc(Oc3ccccc3)cc2)c2c(N)ncnc21 [Example I-54] | ≤ 10 | 10 to 1000 | ≤ 10 | 
C=CC(=O)N1CC[C@H](N2CC(C#Cc3c(-c4ccc(Oc5ccccc5)c(OC)c4)c4c(N)nccc4n3C)C2)[C@H](O)C1 [II-79] | 10 to 1000 | 10 to 1000 |  | 10 to 1000
C=CC(=O)N1CCC(C#Cc2c(-c3ccc(Br)c(OC)c3)c3c(N)ncnc3n2C(C)C)CC1 [II-160, 1-(4-((4-amino-5-(4-bromo-3-methoxyphenyl)-7-isopropyl-7H-pyrrolo[2,3-d]pyrimidin-6-yl)ethynyl)piperidin-1-yl)prop-2-en-1-one] | ≤ 10 | 10 to 1000 | 10 to 1000 | 
C=CC(=O)N1CCC(N2CC(C#Cc3c(-c4ccc(Oc5ccccc5)c(OC)n4)c4c(N)ncnc4n3C)C2)CC1CO (stereo not drawn) [II-329] | 10 to 1000 | 10 to 1000 |  | 10 to 1000
C=CC(=O)N1CCC(N2CC(C#Cc3c(-c4ccc(Oc5ccccc5)cc4)c4c(N)ncnc4n3[C@@H](C)CO)C2)CC1 [II-169, (S)-1-(4-(3-((4-amino-7-(1-hydroxypropan-2-yl)-5-(4-phenoxyphenyl)-7H-pyrrolo[2,3-d]pyrimidin-6-yl)ethynyl)azetidin-1-yl)piperidin-1-yl)prop-2-en-1-one] | 10 to 1000 | ≤ 10 | ≤ 10 | 
C=CC(=O)N1C[C@@H]2[C@@H](C#Cc3c(-c4ccc(Oc5ccccn5)cc4)c4c(N)ncnc4n3C3CCOC3)[C@@H]2C1 (mixture of isomers) [II-23] | 10 to 1000 | ≤ 10 |  | ≤ 10
C=CC(=O)N1CCC(N2CC(C#Cc3c(-c4ccc(Cl)c(OC)c4)c4c(N)ncnc4n3C(C)C)C2)CC1 [II-86] | ≤ 10 | 10 to 1000 |  | ≤ 10
C=CC(=O)N1CC[C@@H](N2CC(C#Cc3c(-c4ccc5c(c4)OCCN5C)c4c(N)ncnc4n3C)C2)[C@@H](O)C1 [II-75] | 1000 to 10000 | 1000 to 10000 |  | 1000 to 10000
COCCn1c(C#CC2CN(C(=O)/C=C/CN(C)C)C2)c(-c2ccc(Oc3ccccc3)cc2)c2c(N)ncnc21 [II-191, (E)-1-(3-((4-amino-7-(2-methoxyethyl)-5-(4-phenoxyphenyl)-7H-pyrrolo[2,3-d]pyrimidin-6-yl)ethynyl)azetidin-1-yl)-4-(dimethylamino) but-2-en-1-one] | 10 to 1000 | 10 to 1000 | 10 to 1000 | 
C=CC(=O)N1CCC(N2CC(C#Cc3c(-c4ccc(Oc5ccccc5)c(OC)c4)c4c(N)ncnc4n3C)C2)C[C@H]1CO (stereo partly drawn) [II-248, 1-((2S)-4-(3-((4-amino-5-(3-methoxy-4-phenoxyphenyl)-7-methyl-7H-pyrrolo[2,3-d]pyrimidin-6-yl)ethynyl)azetidin-1-yl)-2-(hydroxymethyl)piperidin-1-yl)prop-2-en-1-one] | ≤ 10 | 10 to 1000 | 10 to 1000 | 
C=CC(=O)N1CC[C@@H](N2CC(C#Cc3c(-c4ccc(Cl)c(O)c4)c4c(N)ncnc4n3C)C2)[C@@H](O)C1 [II-65] | ≤ 10 | 10 to 1000 |  | 10 to 1000
C=CC(=O)N1CCCC(C#Cc2c(-c3ccc(Oc4ccccc4)cc3)c3c(N)ncnc3n2C)CC1 (stereo not drawn) [II-178, 1-(4-((4-amino-7-methyl-5-(4-phenoxyphenyl)-7H-pyrrolo[2,3-d]pyrimidin-6-yl)ethynyl)azepan-1-yl)prop-2-en-1-one] | 10 to 1000 | 10 to 1000 | 10 to 1000 | 
C=CC(=O)N1CC[C@H](N2CC(C#Cc3c(-c4ccc(F)c5c4OCO5)c4c(N)ncnc4n3C(C)C)C2)[C@H](F)C1 [II-286, 1-((3R,4S)-4-(3-((4-amino-5-(7-fluorobenzo[d][1,3]dioxol-4-yl)-7-isopropyl-7H-pyrrolo[2,3-d]pyrimidin-6-yl)ethynyl)azetidin-1-yl)-3-fluoropiperidin-1-yl)prop-2-en-1-one] | ≤ 10 | 10 to 1000 | ≤ 10 | 
C=CC(=O)N1CCC(N2CC(C#Cc3c(-c4ccc(F)c5c4OCO5)c4c(N)ncnc4n3C)C2)CC1 [II-120] | 10 to 1000 | 10 to 1000 |  | 10 to 1000
C=CS(=O)(=O)N1CCC(N2CC(C#Cc3c(-c4ccc(Oc5ccccc5)c(OC)n4)c4c(N)ncnc4n3C)C2)CC1 [II-322] | ≤ 10 | 10 to 1000 |  | 10 to 1000
C=CC(=O)N1CCC(N2CC(C#Cc3c(-c4ccc(Cl)c(CF)c4)c4c(N)ncnc4n3C)C2)CC1 [II-89] | 10 to 1000 | 10 to 1000 |  | 10 to 1000
C=CC(=O)N1CCC(N2CC(C#Cc3c(-c4ccc(F)c5c4OCO5)c4c(N)ncnc4n3CC)C2)CC1 [II-290] | ≤ 10 | 10 to 1000 | 10 to 1000 | 
C=CC(=O)N1CCC(N2CC(C#Cc3c(-c4ccc(F)c5c4OCO5)c4c(N)ncnc4n3C(C)C)C2)CC1 [II-134] | ≤ 10 | 10 to 1000 |  | 10 to 1000
C=CC(=O)N1CCC(C#Cc2c(-c3ccc(Nc4ccccc4)cc3)c3c(N)ncnc3n2C(C)C)CC1 [Example I-7] | 10 to 1000 | 10 to 1000 | ≤ 10 | 
C=CC(=O)N1CC[C@@H](N2CC(C#Cc3c(-c4ccc(Oc5cccc(C)n5)c(Cl)c4)c4c(N)ncnc4n3C)C2)[C@@H](O)C1 [II-20] | 10 to 1000 | 10 to 1000 |  | 10 to 1000
C=CC(=O)N[C@@H](CO)C(=O)N1CCC(C#Cc2c(-c3ccc(Oc4ccccc4)cc3)c3c(N)ncnc3n2C)CC1 [II-198] | ≤ 10 | ≤ 10 | ≤ 10 | 
C=CC(=O)N1CCC(C#Cc2c(-c3ccc(Oc4ccccc4)cc3)c3c(N)ncnc3n2C(C)COC)CC1 (stereo not drawn) [Example I-57] | 10 to 1000 | 10 to 1000 | 10 to 1000 | 
C=CC(=O)N1CCC(N2CC(C#Cc3c(-c4cccc(Cl)c4OC)c4c(N)ncnc4n3C)C2)CC1 [II-264] | 1000 to 10000 | 1000 to 10000 | 1000 to 10000 | 
C=CC(=O)N1CCC(N2CC(F)(C#Cc3c(-c4ccc(Oc5ccccc5)cc4)c4c(N)ncnc4n3C)C2)C(O)C1 (stereo not drawn) [III-1] | 10 to 1000 | ≤ 10 | ≤ 10 | 
C=CC(=O)N1CC[C@H](N2CC(C#Cc3c(-c4ccccc4OC)c4c(N)ncnc4n3C)C2)[C@H](O)C1 [II-274] | 10 to 1000 | 1000 to 10000 | 1000 to 10000 | 

Source: patent US20250154154A1 (Relay Binney Street, 2nd Floor, priority 2020, published 2025)
